Results taken from paper PMC6522524 (Nature Communications, 2019).

System: intracellular HBV DNA in HepG2.2.15 and HBV 1.2X adr transfected HepG2 cells
Assay: Southern blot analysis of intracellular HBV DNA
Type: cell-based, Hepatitis B virus
Conditions: Fig. 4c
From the text: HBV DNA was separated on a 1% agarose gel, blotted onto a nylon membrane (Hybond N + , RPN203B, GE Healthcare), and hybridized with a biotin-labeled full length HBV fragment prepared with the BioPrime™ DNA labeling system (18094011, ThermoFisher).

Cc1cc(C2CCCCC2)n(O)c(=O)c1 [Ciclopirox, 6-cyclohexyl-1-hydroxy-4-methyl-2(1 H)-pyridone]
intracellular HBV DNA levels (Southern blot): reduced intracellular HBV DNA levels in a dose-dependent manner
